# According to patent US9586896B2, “Nitroxyl donors with improved therapeutic index” (Cardioxyl Pharmaceuticals, Inc., priority 2013, dated 2017):
# Assays:
# [1] = In vitro stability (half-life) in PBS pH 7.4; format: physicochemical; conditions: pH 7.4, aerated PBS pH 7.4, 37° C., read-out: T1/2 (minutes) PBS
# Method: (§1) Compound (1), compound (2), and CXL-1020 were tested for their stability in plasma. The assay system comprised (i) PBS, or plasma from rat, dog or human (at least 3 donors, male, pooled) at pH 7.4, and (ii) for tests conducted in plasma, an anticoagulant (sodium heparin or sodium citrate). Each test compound (5 μM) was incubated in PBS or plasma at 37° C. on a THERMOMIXER® with shaking Three samples (n=3) were taken at each of seven sampling time points: 0, 10, 30, 60, 90, 180 and 360 minutes. The samples were immediately combined with 3 volumes (i.e., 3 times the volume of PBS or plasma) of acetonitrile containing 1% formic acid and an internal standard to terminate the reaction. AB SCIEX API 3000 LC-MS/MS analysis of the test compounds was performed without a standard curve. Half-lives (T1/2) of the test compounds were determined from graphs of the percent remaining values using the peak area response ratio.
# [2] = tested on: beagle dogs; assay: 24-hour continuous infusion, canine peripheral (cephalic) vein model, clinical pathology; format: in vivo; conditions: for NOAEL (μg/kg/min), clinical pathology markers: 24 hour i.v. infusion, CAPTISOL 7% w/v pH 4, WBC, fibrinogen, CRP, molar equivalent dose rates to CXL-1020
# Method: After 24 hours of infusion, clinical pathology changes similar to those observed in previous studies using an implanted central catheter were detected.
# Studies were conducted in male and female beagle dogs. Animals were allowed free access to drinking water and a commercial canine diet under standard laboratory conditions. Animals were fasted prior to blood sample collections when indicated by the study protocol. Fluorescent lighting was provided via an automatic timer for approximately 12 hours per day. On occasion, the dark cycle was interrupted intermittently due to study-related activities. Temperature and humidity were monitored and recorded daily and maintained to the maximum extent possible between 64° F. to 84° F. and 30% to 70%, respectively. The dogs were acclimated for a period of at least 1 week. During this period, the animals were weighed weekly and observed with respect to general health and any signs of disease. The animals were acclimated to wearing a jacket for at least three days prior to dose administration. Additionally, the animals were also acclimated to wearing an Elizabethan collar (e-collar) during the jacket acclimation.
# Animals were catheterized the day prior to dose administration. A percutaneous catheter was placed (using aseptic technique and sterile bandaging) in the cephalic vein distal to the elbow. The animals were free-moving in their cages during continuous infusion dose administration. To facilitate continuous infusion dose administration, the peripheral catheter was attached to an extension set routed underneath a canine jacket and then attached to a tether infusion system. To prevent the animals from accessing/removing the peripherally placed percutaneous catheter, the catheterization site was bandaged using Vet Wrap and an e-collar was placed on the animals for the duration of the treatment (i.e., the catheterized period). During the pretreatment period, the venous catheter was infused continuously at a rate of approximately 2-4 mL/hr with 0.9% sodium chloride for injection, USP (saline) to maintain catheter patency. Prior to dosing, the infusion system was pre-filled (slow bolus infusion) with the respective dosing solution to ensure that dosing began as soon as the infusion pump was started. The infusion line was connected to a reservoir containing the control or test compound and the infusion was started. Test compositions were infused continuously, at a predetermined constant infusion rate (1 or 2 mL/kg/hr), for 24 hours and were compared at molar equivalent dose rates.
# A detailed clinical examination of each animal was performed twice daily and body temperature measurements and blood samples for clinical pathology were collected from all animals pre-dose and 6 hours, 12 hours, 24 hours and 72 hours post start of composition infusion. At the termination of the study, all animals were euthanized at their scheduled necropsy and complete necropsy examinations were performed. Selected tissues were collected, fixed and stored for potential future microscopic examination. The cephalic vein containing the infusion catheter was dissected intact along with the brachial vein and examined along its entire length. The location of the catheter tip was marked on the unfixed specimen. […]
# [3] = tested on: dogs; assay: Microscopic pathology of the vasculature, canine implanted central catheter 72 hour model; format: in vivo, beagle dogs; conditions: edema, vascular/perivascular inflammation, hemorrhage, molar equivalent dose rates to CXL-1020
# Method: Confirmation was obtained through evaluating the nitroxyl donors through detailed histopathology of the vasculature at the site of insertion of into the femoral vein (15 cm distal to the catheter tip), along the catheter track to the catheter tip, and past the tip downstream 20 cm.
# A composite lab score was calculated from the sum of these findings scores. In FIG. 5, the cumulative histology composite lab score ranges from 0-2 (low severity) to 11-12 (high severity). […] The NOAEL values determined based on these microscopic pathology markers for a series of nitroxyl donors, expressed in molar equivalent dose rates (μg/kg/min) to CXL-1020, are provided in Table 8.
# [4] = In vitro stability (half-life) in human plasma; format: in vitro ADME; conditions: male, pH 7.4, human plasma pH 7.4, anticoagulant, 37° C., read-out: T1/2 (minutes) Human
# Method: as §1
# [5] = dogs, percutaneous catheter in cephalic vein
smiles,measurement,setting,value
"CS(=O)(=O)c1cccc(S(=O)(=O)NO)c1 [(2), N-Hydroxy-3-methanesulfonylbenzene-1-sulfonamide]",half-life at 5 μM,[1],~50 min
same,"NOAEL (μg/kg/min), clinical pathology markers",[2]; dogs,3 μg/kg/min
same,"NOAEL (μg/kg/min), microscopic pathology markers",[3],≧180 μg/kg/min
same,half-life at 5 μM,[4],~37 min
"CS(=O)(=O)c1ccccc1S(=O)(=O)NO [CXL-1020, N-hydroxy-2-methanesulfonylbenzene-1-sulfonamide]",half-life at 5 μM,[1],2 min
same,"NOAEL (μg/kg/min), clinical pathology markers",[2]; dogs,<0.03 μg/kg/min
same,finding after 6 hours of infusion,[2]; [5],significant edema was observed in the upper forelimb
same,microscopic pathology after 24 hours of infusion,[2]; [5],severe thrombophlebitis at the catheter tip
same,"NOAEL (μg/kg/min), microscopic pathology markers",[3],<3 μg/kg/min
same,half-life at 5 μM,[4],2 min
"Cc1ccc(S(=O)(=O)NO)o1 [Compound (1), N-Hydroxy-5-methylfuran-2-sulfonamide]",half-life at 5 μM,[1],~68 min
same,improvement in NOAEL relative to CXL-1020,[2]; clinical pathology markers,> 660 fold
same,"NOAEL (μg/kg/min), microscopic pathology markers",[3],≧180 μg/kg/min
same,half-life at 5 μM,[4],~65 min
